System: MV-4-11 cells
Assay: Gene expression microarray analysis (Affymetrix PrimeView) and GSEA
Type: cell-based, human
Set-up: RFU PODN (11730768_x_at) / Fold change /veh PODN (11730768_x_at) / RFU LINC00158 (11744669_a_at) / Fold change /veh LINC00158 (11744669_a_at) / RFU DUSP10 (11751237_a_at) / Fold change /veh DUSP10 (11751237_a_at) / RFU ID3 (11757404_x_at) / Fold change /veh ID3 (11757404_x_at) / RFU PLEKHG5 (11737974_s_at) / Fold change /veh PLEKHG5 (11737974_s_at) / RFU LRRC4B (11730491_at) / Fold change /veh LRRC4B (11730491_at) / RFU GIMAP4 (11747438_a_at) / Fold change /veh GIMAP4 (11747438_a_at) / RFU KRT8 (11758183_x_at) / Fold change /veh KRT8 (11758183_x_at) / RFU CNN1 (11734310_a_at) / Fold change /veh CNN1 (11734310_a_at) / RFU VPS37D (11726825_at) / Fold change /veh VPS37D (11726825_at) / RFU C10orf10 (11716522_x_at) / Fold change /veh C10orf10 (11716522_x_at) / RFU KIR2DL2 /// KIR2DL4 /// KIR2DL5A /// KIR2DL5B /// KIR2DS1 /// KIR2DS2 /// KIR2DS3 /// KIR2DS4 /// KIR3DL3 /// KIR3DL3 /// KIR3DS1 (11738374_at) / Fold change /veh KIR2DL2 /// KIR2DL4 /// KIR2DL5A /// KIR2DL5B /// KIR2DS1 /// KIR2DS2 /// KIR2DS3 /// KIR2DS4 /// KIR3DL3 /// KIR3DL3 /// KIR3DS1 (11738374_at) / RFU C1QL1 (11718748_at) / Fold change /veh C1QL1 (11718748_at) / RFU TMPRSS4 (11747572_a_at) / Fold change /veh TMPRSS4 (11747572_a_at) / RFU HAMP (11756126_x_at) / Fold change /veh HAMP (11756126_x_at) / RFU RNFT2 (11725882_a_at) / Fold change /veh RNFT2 (11725882_a_at) / RFU NR4A2 (11747474_a_at) / Fold change /veh NR4A2 (11747474_a_at) / RFU ABCC12 (11746883_a_at) / Fold change /veh ABCC12 (11746883_a_at) / RFU TMEM136 (11760407_x_at) / Fold change /veh TMEM136 (11760407_x_at) / RFU CLDN22 /// WWC2 (11732394_at) / Fold change /veh CLDN22 /// WWC2 (11732394_at) / RFU HLA-DPB1 (11760878_x_at) / Fold change /veh HLA-DPB1 (11760878_x_at) / RFU SPINT1 (11716480_a_at) / Fold change /veh SPINT1 (11716480_a_at) / RFU GAP43 (11754022_s_at) / Fold change /veh GAP43 (11754022_s_at) / RFU A4GNT (11735810_at) / Fold change /veh A4GNT (11735810_at) / RFU PRB3 (11715151_x_at) / Fold change /veh PRB3 (11715151_x_at) / RFU TUBB4B (11761932_at) / Fold change /veh TUBB4B (11761932_at) / RFU CAPN14 (11732068_a_at) / Fold change /veh CAPN14 (11732068_a_at) / RFU TMCC2 (11721928_a_at) / Fold change /veh TMCC2 (11721928_a_at) / RFU IRGQ (11745062_a_at) / Fold change /veh IRGQ (11745062_a_at) / RFU FAM174B (11720279_a_at) / Fold change /veh FAM174B (11720279_a_at) / RFU TMPRSS4 (11748680_a_at) / Fold change /veh TMPRSS4 (11748680_a_at) / RFU FAM212B (11763350_a_at) / Fold change /veh FAM212B (11763350_a_at) / RFU PLEKHG5 (11743358_a_at) / Fold change /veh PLEKHG5 (11743358_a_at) / RFU ZSCAN30 (11745921_a_at) / Fold change /veh ZSCAN30 (11745921_a_at) / RFU CMKLR1 (11741424_a_at) / Fold change /veh CMKLR1 (11741424_a_at) / RFU LOC101060620 /// MAPK8IP1 (11723275_at) / Fold change /veh LOC101060620 /// MAPK8IP1 (11723275_at) / RFU SPTSSB (11747773_x_at) / Fold change /veh SPTSSB (11747773_x_at) / RFU PRSS12 (11739890_at) / Fold change /veh PRSS12 (11739890_at) / RFU BIN1 (11741810_x_at) / Fold change /veh BIN1 (11741810_x_at) / RFU WNT11 (11732464_a_at) / Fold change /veh WNT11 (11732464_a_at) / RFU C10orf10 (11716521_a_at) / Fold change /veh C10orf10 (11716521_a_at) / RFU C5orf56 (11738089_at) / Fold change /veh C5orf56 (11738089_at) / RFU CYB561 (11721691_x_at) / Fold change /veh CYB561 (11721691_x_at) / RFU ANKRD19P (11752326_a_at) / Fold change /veh ANKRD19P (11752326_a_at) / RFU OR2T12 /// OR2T33 /// OR2T8 (11738714_s_at) / Fold change /veh OR2T12 /// OR2T33 /// OR2T8 (11738714_s_at) / RFU VCAN (11748164_a_at) / Fold change /veh VCAN (11748164_a_at) / RFU JSRP1 (11732532_at) / Fold change /veh JSRP1 (11732532_at) / RFU KRTAP10-11 (11738290_x_at) / Fold change /veh KRTAP10-11 (11738290_x_at) / RFU MYO3A (11730013_a_at) / Fold change /veh MYO3A (11730013_a_at) / RFU EBF3 (11725865_a_at) / Fold change /veh EBF3 (11725865_a_at) / RFU CAMK2N1 (11719241_x_at) / Fold change /veh CAMK2N1 (11719241_x_at) / RFU C5orf56 (11738088_a_at) / Fold change /veh C5orf56 (11738088_a_at) / RFU OLFML3 (11715873_a_at) / Fold change /veh OLFML3 (11715873_a_at) / RFU LOC100653217 /// NTM (11731650_a_at) / Fold change /veh LOC100653217 /// NTM (11731650_a_at) / RFU MAPK11 (11762145_a_at) / Fold change /veh MAPK11 (11762145_a_at) / RFU FIZ1 (11724087_x_at) / Fold change /veh FIZ1 (11724087_x_at) / RFU OASL (11726364_x_at) / Fold change /veh OASL (11726364_x_at) / RFU SOX15 (11748057_x_at) / Fold change /veh SOX15 (11748057_x_at) / RFU CD79A (11719716_a_at) / Fold change /veh CD79A (11719716_a_at) / RFU HIST1H1D (11736915_at) / Fold change /veh HIST1H1D (11736915_at) / RFU CASKIN2 (11723855_a_at) / Fold change /veh CASKIN2 (11723855_a_at) / RFU LOC730098 (11760151_x_at) / Fold change /veh LOC730098 (11760151_x_at) / RFU OR4N2 (11742367_at) / Fold change /veh OR4N2 (11742367_at) / RFU PRRT2 (11749266_a_at) / Fold change /veh PRRT2 (11749266_a_at) / RFU SNX32 (11753110_a_at) / Fold change /veh SNX32 (11753110_a_at) / RFU CDHR5 (11726645_a_at) / Fold change /veh CDHR5 (11726645_a_at) / RFU RCAN1 (11760418_a_at) / Fold change /veh RCAN1 (11760418_a_at) / RFU FAM167A (11723789_a_at) / Fold change /veh FAM167A (11723789_a_at) / RFU FAM26E (11764081_at) / Fold change /veh FAM26E (11764081_at) / RFU ISYNA1 (11749810_s_at) / Fold change /veh ISYNA1 (11749810_s_at) / RFU ACY1 (11761880_at) / Fold change /veh ACY1 (11761880_at) / RFU 11764098_at / Fold change /veh 11764098_at / RFU SAMD14 (11745864_x_at) / Fold change /veh SAMD14 (11745864_x_at) / RFU NPB (11741838_a_at) / Fold change /veh NPB (11741838_a_at) / RFU TMPRSS6 (11731388_a_at) / Fold change /veh TMPRSS6 (11731388_a_at) / RFU KRTAP10-2 (11738614_at) / Fold change /veh KRTAP10-2 (11738614_at) / RFU ARHGAP8 /// PRR5-ARHGAP8 (11727945_x_at) / Fold change /veh ARHGAP8 /// PRR5-ARHGAP8 (11727945_x_at) / RFU KRTAP5-7 /// NADSYN1 (11734609_at) / Fold change /veh KRTAP5-7 /// NADSYN1 (11734609_at) / RFU RASL12 (11751679_a_at) / Fold change /veh RASL12 (11751679_a_at) / RFU CDKN2B (11736163_a_at) / Fold change /veh CDKN2B (11736163_a_at) / RFU PRF1 (11729649_at) / Fold change /veh PRF1 (11729649_at) / RFU, ZNF638 /// ZNF638-IT1 / Fold change vs veh, ZNF638 /// ZNF638-IT1 / RFU, PANK3 / Fold change vs veh, PANK3 / RFU, SH3YL1 / Fold change vs veh, SH3YL1 / RFU, ZEB2 / Fold change vs veh, ZEB2 / RFU, NRIP1 / Fold change vs veh, NRIP1 / RFU, PTTG1IP / Fold change vs veh, PTTG1IP / RFU, CAPN2 / Fold change vs veh, CAPN2 / RFU, MED14 / Fold change vs veh, MED14 / RFU, SNORA58 / Fold change vs veh, SNORA58 / RFU, C1orf63 / Fold change vs veh, C1orf63 / RFU, LRRFIP1 / Fold change vs veh, LRRFIP1 / RFU, NDUFAF7 / Fold change vs veh, NDUFAF7 / RFU, SLC12A2 / Fold change vs veh, SLC12A2 / RFU, IBTK / Fold change vs veh, IBTK / RFU, ESF1 / Fold change vs veh, ESF1 / Fold change vs veh, TMEM50B / RFU, TAOK1 / Fold change vs veh, TAOK1 / RFU, ACBD3 / Fold change vs veh, ACBD3 / RFU, TMA16 / Fold change vs veh, TMA16 / RFU, RWDD3 / Fold change vs veh, RWDD3 / RFU, BCAT1 / Fold change vs veh, BCAT1 / RFU, EDEM3 / Fold change vs veh, EDEM3 / RFU, TMEM33 / Fold change vs veh, TMEM33 / RFU, WDR75 / Fold change vs veh, WDR75 / RFU, AHCTF1 / Fold change vs veh, AHCTF1 / RFU, TFRC / Fold change vs veh, TFRC / RFU, ZDHHC17 / Fold change vs veh, ZDHHC17 / RFU, NOM1 / Fold change vs veh, NOM1 / RFU, ARL8B / Fold change vs veh, ARL8B / RFU, ZBTB11 / Fold change vs veh, ZBTB11 / RFU, TAMM41 / Fold change vs veh, TAMM41 / RFU, KIAA1704 /// LOC100996395 / Fold change vs veh, KIAA1704 /// LOC100996395 / RFU, ING1 / Fold change vs veh, ING1 / RFU, TRMT61B / Fold change vs veh, TRMT61B / RFU, FUBP3 / Fold change vs veh, FUBP3 / RFU, TP53 / Fold change vs veh, TP53 / RFU, TNKS2 / Fold change vs veh, TNKS2 / RFU, ZFP14 / Fold change vs veh, ZFP14 / RFU, ACTR2 / Fold change vs veh, ACTR2 / RFU, PPP3R1 / Fold change vs veh, PPP3R1 / RFU, PIK3R1 / Fold change vs veh, PIK3R1 / RFU, HNRNPA1 / Fold change vs veh, HNRNPA1 / RFU, RNF170 / Fold change vs veh, RNF170 / RFU, ZNF28 / Fold change vs veh, ZNF28 / RFU, RNGTT / Fold change vs veh, RNGTT / RFU, OGT / Fold change vs veh, OGT / RFU, BRD1 / Fold change vs veh, BRD1 / RFU, MARS / Fold change vs veh, MARS / RFU, ZNF655 / Fold change vs veh, ZNF655 / RFU, FAHD1 / Fold change vs veh, FAHD1 / RFU, BDP1 / Fold change vs veh, BDP1 / RFU, LRRCC1 / Fold change vs veh, LRRCC1 / RFU, ARID1A / Fold change vs veh, ARID1A / RFU, ZNF146 / Fold change vs veh, ZNF146 / RFU, ZNF330 / Fold change vs veh, ZNF330 / RFU, GPN3 / Fold change vs veh, GPN3 / RFU, C9orf123 / Fold change vs veh, C9orf123 / RFU, N4BP2L2 / Fold change vs veh, N4BP2L2 / RFU, ARFIP1 / Fold change vs veh, ARFIP1 / RFU, FAM179B / Fold change vs veh, FAM179B / RFU, BCL10 / Fold change vs veh, BCL10 / RFU, UHRF1BP1L / Fold change vs veh, UHRF1BP1L / RFU, BET1 / Fold change vs veh, BET1 / RFU, CNOT2 / Fold change vs veh, CNOT2 / RFU, ZNF268 / Fold change vs veh, ZNF268 / Fold change vs veh, ZNF507 / RFU, DGCR2 / Fold change vs veh, DGCR2 / RFU, WDSUB1 / Fold change vs veh, WDSUB1 / Fold change vs veh, HSP90B1 /// MIR3652 / RFU, ADSS / Fold change vs veh, ADSS / RFU, GK / Fold change vs veh, GK / RFU, ZNF148 / Fold change vs veh, ZNF148 / RFU, TAF9 / Fold change vs veh, TAF9 / RFU, SLC1A5 / Fold change vs veh, SLC1A5 / RFU, SLMO2 / Fold change vs veh, SLMO2 / RFU, ABCC4 / Fold change vs veh, ABCC4 / RFU, LOC101060439 /// RAP1B / Fold change vs veh, LOC101060439 /// RAP1B / RFU, RFX7 / Fold change vs veh, RFX7 / RFU, GTPBP10 / Fold change vs veh, GTPBP10 / RFU, CNEP1R1 / Fold change vs veh, CNEP1R1 / RFU, BIVM-ERCC5 /// ERCC5 / Fold change vs veh, BIVM-ERCC5 /// ERCC5 / RFU, ILF3 / Fold change vs veh, ILF3 / RFU 11762660_at / Fold change /veh 11762660_at / RFU VCAN (11757783_s_at) / Fold change /veh VCAN (11757783_s_at) / RFU DDX43 (11728927_at) / Fold change /veh DDX43 (11728927_at) / RFU KRT8 (11758188_x_at) / Fold change /veh KRT8 (11758188_x_at) / RFU NKD1 (11759106_at) / Fold change /veh NKD1 (11759106_at) / RFU SRD5A1 (11742802_a_at) / Fold change /veh SRD5A1 (11742802_a_at) / RFU TPSAB1 /// TPSB2 (11721975_s_at) / Fold change /veh TPSAB1 /// TPSB2 (11721975_s_at) / RFU GSTM3 (11746129_a_at) / Fold change /veh GSTM3 (11746129_a_at) / RFU IL23R (11737362_x_at) / Fold change /veh IL23R (11737362_x_at) / RFU TMEM51 (11727254_a_at) / Fold change /veh TMEM51 (11727254_a_at) / RFU PIWIL2 (11732686_x_at) / Fold change /veh PIWIL2 (11732686_x_at) / RFU ORM1 (11744905_x_at) / Fold change /veh ORM1 (11744905_x_at) / RFU CCDC152 (11743942_at) / Fold change /veh CCDC152 (11743942_at) / RFU ECM1 (11717891_a_at) / Fold change /veh ECM1 (11717891_a_at) / RFU IL23R (11748794_a_at) / Fold change /veh IL23R (11748794_a_at) / RFU TNFAIP8L3 (11732012_x_at) / Fold change /veh TNFAIP8L3 (11732012_x_at) / RFU MBOAT4 (11741988_at) / Fold change /veh MBOAT4 (11741988_at) / RFU 11764193_at / Fold change /veh 11764193_at / RFU TMEM53 (11763286_at) / Fold change /veh TMEM53 (11763286_at) / RFU MAGEB2 (11727129_at) / Fold change /veh MAGEB2 (11727129_at) / RFU TMEM200A (11744735_a_at) / Fold change /veh TMEM200A (11744735_a_at) / RFU CCDC152 (11751479_a_at) / Fold change /veh CCDC152 (11751479_a_at) / RFU FAM211A (11726209_a_at) / Fold change /veh FAM211A (11726209_a_at) / RFU RGS16 (11746705_a_at) / Fold change /veh RGS16 (11746705_a_at) / RFU VCAN (11755009_s_at) / Fold change /veh VCAN (11755009_s_at) / RFU RHOB (11743442_s_at) / Fold change /veh RHOB (11743442_s_at) / RFU RGS16 (11720943_a_at) / Fold change /veh RGS16 (11720943_a_at) / RFU RGS16 (11720944_at) / Fold change /veh RGS16 (11720944_at) / RFU, VPS4B / Fold change vs veh, VPS4B / RFU, CREB1 / Fold change vs veh, CREB1 / RFU, DNAJC13 / Fold change vs veh, DNAJC13 / RFU, GNAQ / Fold change vs veh, GNAQ / RFU, CDK5R1 / Fold change vs veh, CDK5R1 / RFU, ZRANB3 / Fold change vs veh, ZRANB3 / RFU, CUL4A / Fold change vs veh, CUL4A / RFU, CCNY / Fold change vs veh, CCNY / RFU, UFL1 / Fold change vs veh, UFL1 / RFU, COG3 / Fold change vs veh, COG3 / RFU, DIAPH2 / Fold change vs veh, DIAPH2 / RFU, SKA2 / Fold change vs veh, SKA2 / RFU, AFF3 / Fold change vs veh, AFF3 / RFU, LMF1 / Fold change vs veh, LMF1 / RFU, IPO11 / Fold change vs veh, IPO11 / RFU, DFFB / Fold change vs veh, DFFB / RFU, FOXP1 / Fold change vs veh, FOXP1 / RFU, CARD8 / Fold change vs veh, CARD8 / RFU, STRN3 / Fold change vs veh, STRN3 / RFU, ADK / Fold change vs veh, ADK / RFU, RASSF2 / Fold change vs veh, RASSF2 / RFU, WIPF1 / Fold change vs veh, WIPF1 / RFU, LARP1B / Fold change vs veh, LARP1B / RFU, RASA1 / Fold change vs veh, RASA1 / RFU, RB1 / Fold change vs veh, RB1 / RFU, PPFIA1 / Fold change vs veh, PPFIA1 / RFU, MAT2A / Fold change vs veh, MAT2A / RFU, CCT5 / Fold change vs veh, CCT5 / RFU, WDR92 / Fold change vs veh, WDR92 / RFU, CUX1 / Fold change vs veh, CUX1 / RFU, TTC7A / Fold change vs veh, TTC7A / RFU, TMEM135 / Fold change vs veh, TMEM135 / RFU, DEPTOR / Fold change vs veh, DEPTOR / RFU, CPM / Fold change vs veh, CPM / RFU, DNAJB6 / Fold change vs veh, DNAJB6 / RFU, CACNA2D3 / Fold change vs veh, CACNA2D3 / RFU, DTX4 / Fold change vs veh, DTX4 / RFU, TFCP2 / Fold change vs veh, TFCP2 / RFU, GMCL1 /// GMCL1P1 / Fold change vs veh, GMCL1 /// GMCL1P1 / RFU, AEBP2 / Fold change vs veh, AEBP2 / RFU, SNHG1 /// SNORD22 /// SNORD25 /// SNORD26 /// SNORD27 /// SNORD28 /// SNORD29 /// SNORD31 / Fold change vs veh, SNHG1 /// SNORD22 /// SNORD25 /// SNORD26 /// SNORD27 /// SNORD28 /// SNORD29 /// SNORD31 / Fold change (Aza/veh), C12orf56 (ProbeSet 11735607_a_at) / Fold change (ACY-1035/veh), C12orf56 (ProbeSet 11735607_a_at) / Fold change (Aza/veh), FGFR1OP (ProbeSet 11751329_s_at) / Fold change (ACY-1035/veh), FGFR1OP (ProbeSet 11751329_s_at) / Fold change (Aza/veh), VPS36 (ProbeSet 11739960_a_at) / Fold change (ACY-1035/veh), VPS36 (ProbeSet 11739960_a_at) / RFU SYPL1 (11715823_x_at) / Fold change /veh SYPL1 (11715823_x_at) / RFU IGFBP7 (11715501_s_at) / Fold change /veh IGFBP7 (11715501_s_at) / RFU REEP3 (11722064_at) / Fold change /veh REEP3 (11722064_at) / RFU IGLL1 (11728026_x_at) / Fold change /veh IGLL1 (11728026_x_at): dose or concentration left out as unconfirmed
Details: MV-4-11 cells, 48 hours

Nc1ncn([C@@H]2O[C@H](CO)[C@@H](O)[C@H]2O)c(=O)n1 [azacitidine]
Fold change /veh RASL12 (11751679_a_at): 0.96

Source: article PMC5218480 (PLoS ONE, 2017)
